Measured values published in PubChem BioAssay (NCI).
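Dose response: 5 concentrations. Exposure: 48 h. Format: 96-well plates. Endpoint: linear interpolation; highest concentration if not reached. At the GI50, growth is halved. TGI is the concentration that stops growth completely.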

How the values were obtained:
Experiment in all cases: NCI anticancer screen, dose series, 48 h
A549 NSCLC = tested on: A549 NSCLC
SK-OV-3 ovarian = tested on: SK-OV-3 ovarian
OVCAR-8 ovarian = tested on: OVCAR-8 ovarian
SR leukemia = tested on: SR leukemia
HOP-62 NSCLC = tested on: HOP-62 NSCLC
HCC-2998 colon = tested on: HCC-2998 colon
HCT-15 colon = tested on: HCT-15 colon
COLO 205 colon = tested on: COLO 205 colon
NCI-H460 lung = tested on: NCI-H460 lung
CCRF-CEM leukemia = tested on: CCRF-CEM leukemia

Compound | GI50 (A549 NSCLC) | TGI (A549 NSCLC) | GI50 (SK-OV-3 ovarian) | TGI (SK-OV-3 ovarian) | GI50 (OVCAR-8 ovarian) | TGI (OVCAR-8 ovarian) | GI50 (SR leukemia) | TGI (SR leukemia) | GI50 (HOP-62 NSCLC) | TGI (HOP-62 NSCLC) | GI50 (HCC-2998 colon) | TGI (HCC-2998 colon) | GI50 (HCT-15 colon) | TGI (HCT-15 colon) | GI50 (COLO 205 colon) | TGI (COLO 205 colon) | GI50 (NCI-H460 lung) | TGI (NCI-H460 lung) | GI50 (CCRF-CEM leukemia) | TGI (CCRF-CEM leukemia)
CCN1C(=O)N(CC)C2C1NN=c1s/c(=C\c3ccco3)c(=O)n12 (stereo not given) | 0.801 µM | > 100 µM | 0.816 µM | > 100 µM | 1.43 µM | > 100 µM | 0.196 µM | > 100 µM | 0.722 µM | > 100 µM | 1.98 µM | > 100 µM | 0.481 µM | > 100 µM | 0.403 µM | > 23.6 µM | 0.403 µM | > 100 µM | 0.368 µM | > 100 µM
Cc1cc(C)n(-c2ccnc3cc(Cl)ccc23)n1 |  | > 100 µM |  | > 100 µM |  | > 100 µM |  | > 100 µM |  | > 100 µM |  | > 100 µM |  | > 100 µM |  | > 100 µM |  | > 100 µM |  | > 100 µM
COc1ccc2c(c1)CC[C@@H]1[C@@H]2CC[C@]2(C)c3c(cc(C(=O)O)c4sccc34)C[C@@H]12 | 11.2 µM | 35.9 µM | 26 µM | 61.2 µM | 24.5 µM | 88.1 µM | 16.4 µM | 45.1 µM | 19.6 µM | 38.5 µM | 11 µM | 26.7 µM | 10.8 µM | 32 µM | 16.4 µM | 70 µM | 11.6 µM | 37.7 µM | 3.42 µM | 13.3 µM
Clc1ccc(Nc2ccnc(N3CCN(c4ccnc5cc(Cl)ccc45)CC3)n2)cc1 | 3.32 µM | > 100 µM | 3.28 µM | 44.7 µM | 3.15 µM | 21.3 µM | 2.51 µM | 8.75 µM | 3.1 µM | 20.9 µM | 3.39 µM | 9.63 µM | 2.49 µM | 10 µM | 1.92 µM | 4.63 µM | 2.33 µM | 6.76 µM | 3.07 µM | 20.6 µM
COc1cc2c(cc1Cc1cccc(Cl)c1F)c(=O)c(C(=O)O)cn2[C@@H](CO)C(C)C | 3.11 µM | 12.2 µM | 4.64 µM | 26.3 µM | 3.03 µM | 11.8 µM | 3.54 µM | 13.8 µM | 5.22 µM | 18.6 µM | 3.13 µM | 11.6 µM | 3.64 µM | 14.4 µM | 2.64 µM | 6.29 µM | 3.07 µM | 10.6 µM | 3.41 µM | 14.2 µM
Cc1cc(O)cc(C)c1/C=C/c1cncc(C(N)=O)c1 | 3.48 µM | > 25 µM | 3.66 µM | > 17.6 µM | 4.15 µM | > 25 µM | 1.06 µM | > 25 µM | 2.8 µM | > 25 µM | 21.9 µM | > 25 µM | 1.54 µM | > 25 µM | 16.5 µM | > 25 µM | 1.84 µM | > 25 µM | 2.88 µM | > 25 µM
COc1cc(O)c2c(c1)O[C@@H]1OCC[C@H]21 |  | > 100 µM |  | > 100 µM |  | > 100 µM |  | > 100 µM |  | > 100 µM |  | > 100 µM |  | > 100 µM |  | > 100 µM |  | > 100 µM |  | > 100 µM
